We go through 13 compounds from patent US7332615B2, “Hydrophilic analogs of 4,8-dihydrobenzodithiophene-4,8-diones as anticancer agents” (Industrial Technology Research Institute, priority 2004, dated 2008).

SMILES strings stand for the structures. Structures can show the parent of a compound that is named as a salt. Where two headings read alike, the source gives them in different places.

Data set [1] can be described thus: Water solubility. It is filed as physicochemical. The conditions noted are these: in H2O; for solubility: water.
The test system of data set [2] is epidermoid carcinoma of the nasopharynx (KB). In words: Cytotoxicity Assays Method C, KB. In kind it is cell-based. Particulars: KB, 50% reduction in cell number after 72 hr of incubation, read-out: IC50 KB.
Data set [3] deals with p-gp-expressing epidermoid carcinoma of the nasopharynx (KB-VIN). Put plainly: Cytotoxicity Assays Method C, KB-VIN. In kind it is cell-based. The conditions noted are these: 50% reduction in cell number after 72 hr of incubation. An excerpt:
Cytotoxicity Assays Method C (KB, KB-VIN, AS49, HCT-8, PC-3) [K. H. Lee et. al. Planta Med. 54, 308-312 (1998), Monk A et. al. J. Natl. Cancer Inst. 83, 757-766 (1991).] The cell lines included epidermoid caninoma of the nasopharynx (KB), p-gp-expressing epidermoid caninoma of the nasopharynx (KB-VIN), lung carcinoma (A-549), ileocecal carinoma (HCT-8) and prostate cancer (PC-3) cell lines.

The subject of data set [4] is lung carcinoma (A-549). In words: Cytotoxicity Assays Method C, A-549. In kind it is cell-based. Particulars: A549, 50% reduction in cell number after 72 hr of incubation, read-out: IC50 A549.
For data set [5], the system named is prostate cancer (PC-3). Put plainly: Cytotoxicity Assays Method C, PC-3. It is filed as cell-based. The conditions noted are these: PC-3, 50% reduction in cell number after 72 hr of incubation, read-out: IC50 PC-3.
Data set [6] concerns ileocecal carcinoma (HCT-8). In words: Cytotoxicity Assays Method C, HCT-8. In kind it is cell-based. Particulars: Homo sapiens, HCT-8, 72 h, HCT-8, 50% reduction in cell number after 72 hr of incubation; read-out: IC50 HCT-8.

For `CC(O)c1cc2c(s1)C(=O)c1sccc1C2=O` (stereo not drawn) [Compound 1b, reference compound], in data set [1], the “Solubility (water solubility)” value is listed as 9.6 × 10^−3 mg/1 mL H2O.
A word on the IC50: it is the midpoint of a concentration-inhibition curve. `COc1cccc2c1C(=O)c1c(O)c3c(c(O)c1C2=O)C[C@@](O)(C(=O)CO)C[C@@H]3O[C@H]1C[C@H](N)[C@H](O)[C@H](C)O1` [Doxorubincin, reference compound]: the half-inhibitory concentration (IC50) in data set [2] is 0.18 µM; in data set [3], 4.97 µM; in data set [4], 0.18 µM.
One may read the solubility as the concentration that dissolves in the medium under given conditions. Low readings indicate a poorly soluble substance, high ones a readily soluble substance. On to `O=C([O-])CCC(=O)OCc1cc2c(s1)C(=O)c1sccc1C2=O.[Na+]` [IIa-1-Na, Sodium mono-[1-(4,8-dioxo-4,8-dihydrobenzo[1,2-b:5,4-b′]dithiophen-2-yl)-methyl]succinate], for which the solubility in data set [1] was no less than 10000 µg/mL. The IC50 in data set [5] (72 h) was 1.22 µM; in data set [6], 3.25 µM; in data set [2] (72 h), 2.09 µM; in data set [3] it was 3.79 µM; in data set [4] (Homo sapiens, A549, 72 h), 3.79 µM.
On to `O=C(O)COCc1cc2c(s1)C(=O)c1sccc1C2=O` [IVa, 4,8-dioxo-4,8-dihydroxybenzo[1,2-b:5,4-b′]-dithiophen-2-yl-methoxy acetic acid], for which the IC50 came out at 1.05 µM in data set [5] (72 h); 2.07 µM in data set [6]; 3.61 µM in data set [2] (72 h); 2.46 µM in data set [3] (Homo sapiens, KBVIN, 72 h); 2.46 µM in data set [4] (Homo sapiens, A549, 72 h).
With `O=C([O-])COCc1cc2c(s1)C(=O)c1sccc1C2=O.[Na+]` [IVa-Na, Sodium 4,8-dioxo-4,8-dihydroxybenzo[1,2-b:5,4-b′]-dithiophen-2-yl-methoxy acetate], in data set [1], the solubility was no less than 9600 µg/mL.
On to `CC(OCC(=O)[O-])c1cc2c(s1)C(=O)c1sccc1C2=O.[Na+]` (stereo not drawn) [IVb-Na, Sodium 1-(4,8-dioxo-4,8-dihydroxybenzo[1,2-b:5,4b′]-dithiophen-2-yl-ethoxy)-acetate], for which the solubility in data set [1] was no less than 3200 µg/mL.
With `CC[C@]1(O)C[C@H]2CN(CCc3c([nH]c4ccccc34)[C@@](C(=O)OC)(c3cc4c(cc3OC)N(C=O)[C@H]3[C@@](O)(C(=O)OC)[C@H](OC(C)=O)[C@]5(CC)C=CCN6CC[C@]43[C@@H]65)C2)C1` [VCR, reference compound], the results for the 50% inhibitory concentration (IC50) in data set [2], in data set [3] and in data set [4] were 0.01 µM, 5.33 µM and 0.04 µM, respectively.
In the case of `COc1cc([C@@H]2c3cc4c(cc3[C@@H](O[C@@H]3O[C@@H]5CO[C@@H](C)O[C@H]5[C@H](O)[C@H]3O)[C@H]3COC(=O)[C@H]23)OCO4)cc(OC)c1O` [VP-16, reference compound], the concentration for half-maximal inhibition (IC50) was 4.76 µM in data set [2], greater than 10 µM in data set [3] and 1.36 µM in data set [4].
For `O=C(O)c1cc2c(s1)C(=O)c1sccc1C2=O` [XI, 4,8-dioxo-4,8-dihydrobenzo-[1,2-b;5,4-b′]dithiophene-2-carboxylic acid], the IC50 in data set [5] stood at 13.4 µM; in data set [6], 37.2 µM; in data set [2] (72 h), 38.3 µM; in data set [3] (Homo sapiens, KBVIN, 72 h), 38.3 µM; in data set [4], 30.3 µM.
In data set [1], `O=C([O][Na+])c1cc2c(s1)C(=O)c1sccc1C2=O` [XI-Na, Sodium 4,8-dioxo-4,8-dihydrobenzo-[1,2-b:5,4-b′]dithiophene-2 carboxylate] yielded a solubility of no less than 10000 µg/mL.
The compound `C[C@H](NC(=O)c1cc2c(s1)C(=O)c1sccc1C2=O)C(=O)[O-].[Na+]` [XIII-Na, Sodium (L)-2-{(4,8-dioxo-4,8-dihydrobenzo-[1,2-b;5,4-b′]dithiophene-2-carbonyl)-amino}-propionate] displayed a solubility in data set [1] of no less than 6600 µg/mL.
Consider `O=C(O)c1cc2c(s1)C(=O)c1ccsc1C2=O` [XIV, 4,8-dioxo-4,8-dihydrobenzo-[1,2-b;4,5-b′]dithiophene-2-carboxylic acid], for which the IC50 was 25.3 µM in data set [5] (72 h); 44.1 µM in data set [6]; 38.3 µM in data set [2] (72 h); 38.3 µM in data set [3] (Homo sapiens, KBVIN, 72 h); 44.4 µM in data set [4].
On to `CN(C)CCNC(=O)c1cc2c(s1)C(=O)c1sccc1C2=O` [XVII-H3PO4, 4,8dioxo-4,8-dihydrobenzo[1,2-b;5,4-b′]dithiophene-2-carboxylate-(2-dimethyl-aminoethyl)-amide phosphoric acid salt], for which the solubility in data set [1] was no less than 2000 µg/mL.
